Laboratory results as given in patent publication US10253006B2, “Assay for the detection of the phenylpiperazine family” (RANDOX LABORATORIES LIMITED, priority 2012, dated 2019).
Read-outs that look alike come from different tables or passages of the source.

Columns and labels:
Assay type in all cases: binding, sheep
[1] = tested on: antibody 2 raised against Immunogen II
Procedure: (§1) A semi-automated Evidence Investigator analyser (Randox Laboratories Ltd., Crumlin, UK) was used as the platform for a biochip assay for the detection of phenylpiperazines.
(§2) Immunogens were administered to 16-month old Suffolk sheep on a monthly basis to provide target specific polyclonal antisera. The immunisation mixture was prepared by adding 2 mg of immunogen prepared in PBS at a ratio of 50% Immunogen/PBS with 50% Freund's Complete adjuvant (Sigma, Product Number—F5881) and emulsifying the mixture to prepare the final product for immunisation. On day 0, 1 ml of the mixture described above was administered intramuscularly to adult sheep. Subsequent boosts (a total of 20 boosts) were administered intramuscularly to each sheep every 30 days. Freund's complete adjuvant (Sigma, Product Number—F5881) was used for primary immunizations and Freund's incomplete adjuvant (Sigma product Number—F5506) was used for all subsequent injections. Routine bleeds were taken between boosts to monitor the antibody titre and sensitivity, using hapten B conjugated to Horseradish peroxidase in a competitive ELISA, testing cross reactivity to 1-(3-Chlorophenyl)piperazine. In the case of the combination immunoassay, immunogens II and IV were administered to separate sheep and the resulting antisera were combined in a 1:1 ratio to form the antibody blend (1 ml of antisera from the sheep administered with Immunogen II was combined with 1 ml of antisera from the sheep administered with Immunogen IV). IgG was extracted from antisera and purified as described above, and the purified antibodies were immobilised on a biochip (9 mm×9 mm) (Randox Laboratories Ltd). The assay was based on competition for binding sites of a polyclonal antibody between Hapten B-HRP conjugate (Example 9) and phenylpiperazines and potential cross-reactants. The antibodies were immobilised and stabilised onto the biochip surface as previously described (Fitzgerald et al., 2005). Assay dilutent (155 μL), calibrator/phenylpiperazine or potential cross-reactant (25 μL) followed by Hapten-B conjugate (120 μL) were added to the appropriate biochip. The biochips were then incubated for 30 minutes at 30° C. on a thermoshaker set at 370 rpm. The biochips were then subjected to 2 quick wash cycles using the wash buffer provided, followed by 4×2 minute wash cycles. 250 μL of signal (1:1 luminol+peroxide, v/v) was then added to each biochip, and after 2 minutes the biochip carrier was imaged in the Evidence Investigator analyser.
(§3) Calibration curves were generated using the Biochip-based immunoassay. IC50 values were calculated from the graphs by taking 50% of the signal from the zero calibrator and reading the corresponding value on the x-axis, equivalent to the concentration of unlabelled ligand which reduces specific binding of labelled ligand by 50%. Specificity (measured as percentage cross-reactivity−[IC50 (analyte)/IC50 (cross-reactant)]×100) was also tested against a range of piperazine derivatives and other compounds sharing structural features (see table 1).

[2] = tested on: Combination of antibodies 1 & 2 (antisera combined in a 1:1 ratio)
Procedure: as §1, §2, §3

[3] = tested on: antibody 1 raised against Immunogen IV; test: Biochip competitive immunoassay, antibody 1
Procedure: as §1, §2, §3

[4] = Antibody 2, standardized to 1-(3-chlorophenyl)piperazine monohydrochloride, Hapten B-HRP conjugate
[5] = Combination of antibodies 1 & 2, standardized to 1-(3-chlorophenyl)piperazine monohydrochloride, Hapten B-HRP conjugate
[6] = Antibody 1, standardized to 1-(3-chlorophenyl)piperazine monohydrochloride, Hapten B-HRP conjugate
[7] = Antibody 2, Hapten B-HRP conjugate
[8] = Combination of antibodies 1 & 2, Hapten B-HRP conjugate
[9] = Antibody 1, Hapten B-HRP conjugate

## COC(=O)[C@@H]1C[C@H](OC(C)=O)C(=O)[C@H]2[C@@]1(C)CC[C@H]1C(=O)O[C@H](c3ccoc3)C[C@]21C [Salvinorin A]
[1]; [4]
  Cross-reactivity (%): <1%
[2]; [5]
  Cross-reactivity (%): <1%
[3]; [6]
  Cross-reactivity (%): <1%

## Nc1cccc(C(F)(F)F)c1O [3-Amino-2-hydroxybenzotrifluoride]
[1]; [4]
  Cross-reactivity (%): <1%
[2]; [5]
  Cross-reactivity (%): <1%
[3]; [6]
  Cross-reactivity (%): <1%

## CCC(C(=O)c1ccc2c(c1)OCO2)N1CCCC1 (centres unmarked) [MDPBP]
[1]; [4]
  Cross-reactivity (%): <1%
[2]; [5]
  Cross-reactivity (%): <1%
[3]; [6]
  Cross-reactivity (%): <1%

## O=c1n(CCCN2CCN(c3cccc(Cl)c3)CC2)nc2ccccn12 [Trazadone]
[1]; [4]
  Cross-reactivity (%): <1%
[2]
  Cross-reactivity (%): <1%
[3]; [6]
  Cross-reactivity (%): <1%

## Oc1cccc(N2CCNCC2)c1 [1-(3-hydroxyphenyl)piperazine]
[1]
  Cross-reactivity (%): 156%
  IC50: 2.504 ng/mL
[2]
  Cross-reactivity (%): 95%
  IC50: 2.848 ng/mL
[3]
  Cross-reactivity (%): 31%
  IC50: 3.469 ng/mL

## Clc1cccc(N2CCNCC2)c1 [1-(3-Chlorophenyl)piperazine (mCPP), 1-(3-chlorophenyl)piperazine]
[1]; [7]
  IC50: 2.554 ng/mL
[1]; [4]
  Cross-reactivity (%): 100%
[2]; [8]
  IC50: 2.075 ng/mL
[2]; [5]
  Cross-reactivity (%): 100%
[3]; [9]
  IC50: 0.907 ng/mL
[3]; [6]
  Cross-reactivity (%): 100%

## CCCCCn1cc(C(=O)Cc2ccccc2OC)c2ccccc21 [JWH-250]
[1]; [4]
  Cross-reactivity (%): <1%
[2]; [5]
  Cross-reactivity (%): <1%
[3]; [6]
  Cross-reactivity (%): <1%

## Cc1cccc(N2CCNCC2)c1 [1-(3-Methylphenyl)piperazine (mMPP), 1-(3-Methylphenyl)piperazine]
[1]; [7]
  IC50: 1.697 ng/mL
[1]; [4]
  Cross-reactivity (%): 230%
[2]; [8]
  IC50: 1.418 ng/mL
[2]; [5]
  Cross-reactivity (%): 191%
[3]; [9]
  IC50: 0.840 ng/mL
[3]; [6]
  Cross-reactivity (%): 129%

## OC1(c2ccc(Cl)cc2)CCNCC1 [4-(4-Chlorophenyl)-4-Hydroxypiperidine]
[1]; [4]
  Cross-reactivity (%): <1%
[2]; [5]
  Cross-reactivity (%): <1%
[3]; [9]
  IC50: 218.980 ng/mL
[3]; [6]
  Cross-reactivity (%): <1%

## COc1ccc(N2CCNCC2)cc1 [1-(4-Methoxyphenyl)piperazine (pMeOPP), 1-(4-methoxyphenyl)piperazine]
[1]; [7]
  IC50: 19.771 ng/mL
[1]; [4]
  Cross-reactivity (%): 20%
[2]; [8]
  IC50: 10.226 ng/mL
[2]; [5]
  Cross-reactivity (%): 26%
[3]; [9]
  IC50: 0.868 ng/mL
[3]; [6]
  Cross-reactivity (%): 68%

## CNC(C)C(=O)c1ccc(C)cc1 (centres unmarked) [Mephedrone]
[1]; [4]
  Cross-reactivity (%): <1%
[2]; [5]
  Cross-reactivity (%): <1%
[3]; [6]
  Cross-reactivity (%): <1%

## CCCCCn1cc(C(=O)c2cccc3ccccc23)c2ccccc21 [JWH-018]
[1]; [4]
  Cross-reactivity (%): <1%
[2]; [5]
  Cross-reactivity (%): <1%
[3]; [6]
  Cross-reactivity (%): <1%

## COc1ccccc1N1CCNCC1 [1-(2-Methoxyphenyl)piperazine]
[1]; [7]
  IC50: 8.770 ng/mL
[1]; [4]
  Cross-reactivity (%): 34%
[2]; [8]
  IC50: 15.553 ng/mL
[2]; [5]
  Cross-reactivity (%): 17%
[3]; [9]
  IC50: 335.160 ng/mL
[3]; [6]
  Cross-reactivity (%): <1%

## c1ccc(CN2CCNCC2)cc1 [1-benzylpiperazine (BZP), 1-benzylpiperazine]
[1]; [4]
  Cross-reactivity (%): <1%
[2]; [5]
  Cross-reactivity (%): <1%
[3]; [9]
  IC50: 232.706 ng/mL
[3]; [6]
  Cross-reactivity (%): <1%

## (+)-Pseudoephedrine
[1]; [4]
  Cross-reactivity (%): <1%
[2]; [5]
  Cross-reactivity (%): <1%
[3]; [6]
  Cross-reactivity (%): <1%

## CN1CCNC(c2ccccc2)C1 (centres unmarked) [1-Methyl-3-phenylpiperazine]
[1]; [4]
  Cross-reactivity (%): <1%
[2]; [5]
  Cross-reactivity (%): <1%
[3]; [6]
  Cross-reactivity (%): <1%

## Oc1ccc(N2CCNCC2)cc1 [1-(4-hydroxyphenyl)piperazine]
[1]; [7]
  IC50: 28.195 ng/mL
[1]; [4]
  Cross-reactivity (%): 10%
[2]; [8]
  IC50: 15.032 ng/mL
[2]; [5]
  Cross-reactivity (%): 18%
[3]; [9]
  IC50: 1.029 ng/mL
[3]; [6]
  Cross-reactivity (%): 57%

## c1ccc(N2CCNCC2)cc1 [1-phenylpiperazine]
[1]; [7]
  IC50: 2.795 ng/mL
[1]; [4]
  Cross-reactivity (%): 140%
[2]; [8]
  IC50: 2.163 ng/mL
[2]; [5]
  Cross-reactivity (%): 125%
[3]; [9]
  IC50: 1.017 ng/mL
[3]; [6]
  Cross-reactivity (%): 106%

## C1CNCCN1 [Piperazine]
[1]
  Cross-reactivity (%): <1%
[2]
  Cross-reactivity (%): <1%
[3]
  Cross-reactivity (%): <1%

## COc1cc(CCN)cc(OC)c1OC [Mescaline]
[1]; [4]
  Cross-reactivity (%): <1%
[2]; [5]
  Cross-reactivity (%): <1%
[3]; [6]
  Cross-reactivity (%): <1%

## Fc1ccc(N2CCNCC2)cc1 [1-(4-Fluorophenyl)piperazine]
[1]; [7]
  IC50: 7.646 ng/mL
[1]; [4]
  Cross-reactivity (%): 38%
[2]; [8]
  IC50: 5.113 ng/mL
[2]; [5]
  Cross-reactivity (%): 51%
[3]; [9]
  IC50: 1.085 ng/mL
[3]; [6]
  Cross-reactivity (%): 54%

## FC(F)(F)c1cccc(N2CCNCC2)c1 [1-(3-Trifluoromethylphenyl)piperazine]
[1]; [7]
  IC50: 4.831 ng/mL
[1]; [4]
  Cross-reactivity (%): 61%
[2]; [8]
  IC50: 5.958 ng/mL
[2]; [5]
  Cross-reactivity (%): 44%
[3]; [9]
  IC50: 7.620 ng/mL
[3]; [6]
  Cross-reactivity (%): 13%
